Measured values published in patent publication US7208597B2, “Pyridyl-triazine derivatives as microbiocidal active substances” (Ciba Specialty Chemicals Corporation, priority 2002, dated 2007).
Each block holds one molecule with its values, some of them ahead of it.

Assays:
Format in all cases: cell-based
[1] = test system: Staphylococcus aureus ATCC 6538; assay: MIC, agar incorporation test; conditions: ATCC6538, 24 hours at 37° C.
Description: (§1) Determination of the Minimum Inhibitory Concentration (MIC) in the Agar Incorporation Test (MIC Test) [table] The plates are incubated at 37° C. for 24 hours (A. niger at 28° C. for 3 days) and then the highest dilution (lowest concentration) of the test substance at which growth is just no longer discernible (corresponds to the MIC) is determined.

[2] = test system: Corynebacterium xerosis ATCC 373; assay: MIC, agar incorporation test; conditions: ATCC373, 24 hours at 37° C.
Description: as §1

[3] = test system: C. minutissimum ATCC 23348; assay: MIC, agar incorporation test; conditions: Corynebacterium minutissimum, ATCC23348, 24 hours at 37° C.
Description: as §1

[4] = test system: Pseudomonas aeruginosa ATCC 15442; assay: MIC, agar incorporation test; conditions: ATCC15442, 24 hours at 37° C.
Description: as §1

[5] = test system: Staphylococcus epidermidis ATCC 12228; assay: MIC, agar incorporation test; conditions: ATCC12228, 24 hours at 37° C.
Description: as §1

[6] = test system: Propionibacterium acnes ATCC 6919; assay: MIC, agar incorporation test; conditions: Cutibacterium acnes, ATCC6919, 24 hours at 37° C.
Description: as §1

[7] = test system: Escherichia coli ATCC 10536; assay: MIC, agar incorporation test; conditions: ATCC10536, 24 hours at 37° C.
Description: as §1

[8] = test system: Proteus vulgaris ATCC 6896; assay: MIC, agar incorporation test; conditions: ATCC6896, 24 hours at 37° C.
Description: as §1

[9] = test system: Candida albicans ATCC 10231; assay: MIC, agar incorporation test; conditions: ATCC10231, 24 hours at 37° C.
Description: as §1

[10] = test system: Escherichia coli NCTC 8196; assay: MIC, agar incorporation test; conditions: NCTC8196, 24 hours at 37° C.
Description: as §1

[11] = test system: Salmonella choleraesuis ATCC 9184; assay: MIC, agar incorporation test; conditions: Salmonella enterica, 24 hours at 37° C.
Description: as §1

[12] = test system: Aspergillus niger ATCC 6275; assay: MIC, agar incorporation test; conditions: ATCC6275, 72 h, 28° C. for 3 days
Description: as §1

[13] = test system: Klebsiella pneumoniae ATCC 4352; assay: MIC, agar incorporation test; conditions: ATCC4352, 24 hours at 37° C.
Description: as §1

[14] = test system: Actinomyces viscosus ATCC 43146; assay: Substantivity on hydroxyapatite and growth-inhibiting action; conditions: discs pre-treated with artificial saliva, 30 minutes in ethanolic solution at 5 ppm; 24 hours at 37° C.; compared to untreated control
Description: Testing the Substantivity of 2-tert-butyl-4-n-octylamino-6-pyrid-2-yl-1,3,5-triazine (140) on Hydroxyapatite and Determination of the Growth-Inhibiting Action Hydroxyapatite discs (diameter 10 mm) are placed in artificial saliva (Deutsche Zahnärztliche Zeitschrift DZZ 5/2002) for 4 hours, rinsed 4 times in NaCl solution and then incubated for 30 minutes in an ethanolic solution of the test substance (140) at 5 ppm. The discs are then transferred to a Nunclon-surface titre plate (12 wells) and incubated at 37° C. for 24 hours in CASO nutrient medium inoculated with Actinomyces viscosus ATCC 43146 (about 10^5/ml).

[15] = test system: biofilm of a defined mixed culture of various gram+ and gram− oral micro-organisms and a yeast (Candida albicans); assay: Activity in the biofilm model (supragingival plaque on hydroxyapatite discs)
Description: Testing the Activity of 2-tert-butyl-4-n-octylamino-6-pyrid-2-yl-1,3,5-triazine (140) in the Biofilm Model Principle: See Guggenheim et al. (2001), “Validation of an in vitro biofilm model of supragingival plaque”, J. Dent Res. 80 (1). Hydroxyapatite discs are pre-treated with human saliva and a biofilm of a defined mixed culture of various gram+ and gram− oral micro-organisms (Streptococci, Actinomyces sp., Veillonella & Fusobacterium sp. and others) and a yeast (Candida albicans) is allowed to grow on the hydroxyapatite. Over the course of the test, which lasts a total of 4 days, the discs are immersed several times in an application formulation of the substance (0.5% (140)). Finally, the biofilm is harvested and the living cell count is determined.

MIC [1]: 8 µg/mL
SMILES: CCCCCCCCCCCC(=O)Nc1nc(C)nc(-c2ccncc2)n1 [Compound of formula (123)]

MIC [1]: 30 µg/mL
SMILES: CCCCCCNc1nc(C)nc(-c2ccccn2)n1 [Compound of formula (131)]

MIC [1]: 60 µg/mL
SMILES: CCCCCCNc1nc(C)nc(-c2cccnc2)n1 [Compound of formula (135)]

MIC [2]: 0.94 µg/mL
MIC [3]: 0.94 µg/mL
MIC [4]: > 120 µg/mL
MIC [5]: 120 µg/mL
MIC [6]: 0.94 µg/mL
MIC [7]: 60 µg/mL
MIC [8]: > 120 µg/mL
MIC [9]: > 120 µg/mL
MIC [10]: 60 µg/mL
MIC [1]: 0.94 µg/mL
MIC [12]: > 120 µg/mL
MIC [13]: 120 µg/mL
SMILES: CCCCCCCCNc1nc(-c2ccccn2)nc(C(C)(C)C)n1 [Compound of formula (140), 2-tert-butyl-4-n-octylamino-6-pyrid-2-yl-1,3,5-triazine]
MIC [11]: 120 µg/mL
inhibition of the growth of Actinomyces viscosus following adsorption onto hydroxyapatite discs [14]: inhibition of the growth
action on microbial count of the biofilm (in words) ([15]; compared to placebo formulation and control containing 10% ethanol): clear reduction in the microbial count
living cell count of biofilm (Mean) ([15]; hydroxyapatite discs pre-treated with human saliva, 4 days, discs immersed several times in application formulation (0.5% (140))): 1.1 × 10^5 CPU/disc
